Measurements taken from the kinase profiling compilation of Christmann-Franck et al. (2016).
pKd: −log10 of the molar value.

Columns and labels:
Assay in all cases: KINOMEscan competition binding
[1] = target: RPS6KA2 KD2 (human) (UniProt Q15349)
[2] = target: CLK1 (human) (UniProt P49759); details: compound 10.0 µM
[3] = target: PHKG1 (human) (UniProt Q16816); details: compound 10.0 µM
[4] = target: PAK1 (human) (UniProt Q13153); details: compound 10.0 µM
[5] = target: MAP3K6 (human) (UniProt O95382); details: compound 10.0 µM
[6] = target: STK32C (human) (UniProt Q86UX6); details: compound 10.0 µM
[7] = target: CDK8 (human) (UniProt P49336); details: compound 10.0 µM
[8] = target: MAPK11 (human) (UniProt Q15759); details: compound 10.0 µM
[9] = target: SRPK3 (human) (UniProt Q9UPE1); details: compound 10.0 µM
Sequence of SRPK3 (human) (Q9UPE1 whole entry, looked up): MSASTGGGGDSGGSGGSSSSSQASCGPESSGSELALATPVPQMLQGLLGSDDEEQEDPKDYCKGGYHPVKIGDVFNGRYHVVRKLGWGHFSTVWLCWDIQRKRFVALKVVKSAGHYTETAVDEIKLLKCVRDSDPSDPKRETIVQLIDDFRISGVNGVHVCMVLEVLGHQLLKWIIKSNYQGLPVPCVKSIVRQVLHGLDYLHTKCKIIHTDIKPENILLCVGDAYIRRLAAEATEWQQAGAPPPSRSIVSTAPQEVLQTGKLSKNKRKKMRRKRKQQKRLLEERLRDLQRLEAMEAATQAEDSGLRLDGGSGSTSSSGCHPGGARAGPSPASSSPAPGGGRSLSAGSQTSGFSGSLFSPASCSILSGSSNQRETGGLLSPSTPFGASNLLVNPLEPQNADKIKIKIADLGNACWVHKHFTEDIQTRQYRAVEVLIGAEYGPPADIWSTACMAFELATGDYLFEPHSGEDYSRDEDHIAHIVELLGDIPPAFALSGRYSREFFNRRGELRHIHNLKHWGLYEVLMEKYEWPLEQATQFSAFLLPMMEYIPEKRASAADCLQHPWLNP

[10] = test system: KIT (human), P10721 [D816H]; details: compound 10.0 µM
Sequence of KIT (human), P10721 [D816H] (P10721 whole entry D816H, looked up): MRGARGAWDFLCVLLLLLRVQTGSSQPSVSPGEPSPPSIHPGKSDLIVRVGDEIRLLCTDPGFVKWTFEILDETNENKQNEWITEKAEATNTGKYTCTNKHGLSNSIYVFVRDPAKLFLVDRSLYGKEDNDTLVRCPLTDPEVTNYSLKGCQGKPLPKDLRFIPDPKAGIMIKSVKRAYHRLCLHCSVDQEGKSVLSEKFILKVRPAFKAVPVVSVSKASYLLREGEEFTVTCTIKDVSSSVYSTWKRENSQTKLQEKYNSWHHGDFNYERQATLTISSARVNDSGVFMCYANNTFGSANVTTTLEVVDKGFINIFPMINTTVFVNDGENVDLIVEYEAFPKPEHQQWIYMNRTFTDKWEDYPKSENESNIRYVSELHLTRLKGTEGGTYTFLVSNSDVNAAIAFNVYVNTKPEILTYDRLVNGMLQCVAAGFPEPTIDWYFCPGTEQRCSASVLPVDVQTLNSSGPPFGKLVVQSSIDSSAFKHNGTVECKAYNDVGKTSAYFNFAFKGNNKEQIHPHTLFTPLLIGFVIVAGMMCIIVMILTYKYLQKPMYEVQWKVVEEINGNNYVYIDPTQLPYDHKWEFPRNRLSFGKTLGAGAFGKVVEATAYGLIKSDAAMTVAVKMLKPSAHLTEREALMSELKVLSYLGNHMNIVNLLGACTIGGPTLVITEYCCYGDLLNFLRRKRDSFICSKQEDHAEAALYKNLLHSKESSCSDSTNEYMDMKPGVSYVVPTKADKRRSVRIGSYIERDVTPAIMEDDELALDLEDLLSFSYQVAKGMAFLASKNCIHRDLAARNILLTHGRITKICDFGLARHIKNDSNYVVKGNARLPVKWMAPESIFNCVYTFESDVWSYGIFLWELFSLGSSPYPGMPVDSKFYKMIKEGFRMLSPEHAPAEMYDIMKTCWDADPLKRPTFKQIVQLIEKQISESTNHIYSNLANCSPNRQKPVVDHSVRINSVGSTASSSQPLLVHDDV

[11] = target: PIK3CB (human) (UniProt P42338); details: compound 10.0 µM
[12] = target: HIPK2 (human) (UniProt Q9H2X6); details: compound 10.0 µM
[13] = target: MYLK (human) (UniProt Q15746); details: compound 10.0 µM
[14] = target: PLK4 (human) (UniProt O00444)
Sequence of PLK4 (human) (O00444 whole entry, looked up): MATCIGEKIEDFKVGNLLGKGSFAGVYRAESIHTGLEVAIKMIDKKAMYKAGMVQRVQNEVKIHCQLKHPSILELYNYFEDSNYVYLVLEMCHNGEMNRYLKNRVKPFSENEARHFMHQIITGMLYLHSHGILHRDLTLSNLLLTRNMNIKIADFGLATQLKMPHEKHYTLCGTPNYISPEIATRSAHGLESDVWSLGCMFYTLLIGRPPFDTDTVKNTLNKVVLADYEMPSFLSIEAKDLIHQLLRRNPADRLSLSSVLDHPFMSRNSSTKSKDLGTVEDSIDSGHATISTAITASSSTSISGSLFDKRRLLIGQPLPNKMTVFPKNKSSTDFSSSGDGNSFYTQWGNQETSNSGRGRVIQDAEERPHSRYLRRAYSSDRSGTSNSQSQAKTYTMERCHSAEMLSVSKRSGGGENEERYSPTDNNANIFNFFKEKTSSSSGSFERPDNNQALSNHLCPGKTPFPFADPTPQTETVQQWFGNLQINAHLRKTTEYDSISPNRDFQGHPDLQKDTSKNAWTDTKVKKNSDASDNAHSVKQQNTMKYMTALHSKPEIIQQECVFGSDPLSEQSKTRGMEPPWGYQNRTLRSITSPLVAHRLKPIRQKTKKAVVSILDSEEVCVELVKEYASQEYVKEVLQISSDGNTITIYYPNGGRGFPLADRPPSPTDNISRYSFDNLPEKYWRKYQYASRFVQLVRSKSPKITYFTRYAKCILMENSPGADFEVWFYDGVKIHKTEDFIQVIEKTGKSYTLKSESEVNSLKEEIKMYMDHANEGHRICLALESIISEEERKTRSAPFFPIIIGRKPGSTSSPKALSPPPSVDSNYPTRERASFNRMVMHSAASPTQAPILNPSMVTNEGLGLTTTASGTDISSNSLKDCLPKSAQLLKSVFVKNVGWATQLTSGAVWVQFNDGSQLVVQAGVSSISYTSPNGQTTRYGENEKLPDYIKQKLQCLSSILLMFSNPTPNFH

[15] = target: CDK15 (human) (UniProt Q96Q40); details: compound 10.0 µM
[16] = target: NUAK1 (human) (UniProt O60285); details: compound 10.0 µM
[17] = target: BTK (human) (UniProt Q06187); details: compound 10.0 µM
[18] = target: STK24 (human) (UniProt Q9Y6E0); details: compound 10.0 µM
[19] = target: SRPK2 (human) (UniProt P78362); details: compound 10.0 µM
[20] = target: ACVR2A (human) (UniProt P27037); details: compound 10.0 µM
[21] = target: CHEK2 (human) (UniProt O96017); details: compound 10.0 µM
[22] = target: PLK3 (human) (UniProt Q9H4B4); details: compound 10.0 µM
[23] = target: MAPK10 (human) (UniProt P53779); details: compound 10.0 µM
[24] = target: FYN (human) (UniProt P06241); details: compound 10.0 µM
[25] = target: SNRK (human) (UniProt Q9NRH2); details: compound 10.0 µM
[26] = target: PRKCE (human) (UniProt Q02156); details: compound 10.0 µM
[27] = target: SGK110 (human) (UniProt P0C264); details: compound 10.0 µM
[28] = target: STK32A (human) (UniProt Q8WU08); details: compound 10.0 µM
Sequence of STK32A (human) (Q8WU08 whole entry, looked up): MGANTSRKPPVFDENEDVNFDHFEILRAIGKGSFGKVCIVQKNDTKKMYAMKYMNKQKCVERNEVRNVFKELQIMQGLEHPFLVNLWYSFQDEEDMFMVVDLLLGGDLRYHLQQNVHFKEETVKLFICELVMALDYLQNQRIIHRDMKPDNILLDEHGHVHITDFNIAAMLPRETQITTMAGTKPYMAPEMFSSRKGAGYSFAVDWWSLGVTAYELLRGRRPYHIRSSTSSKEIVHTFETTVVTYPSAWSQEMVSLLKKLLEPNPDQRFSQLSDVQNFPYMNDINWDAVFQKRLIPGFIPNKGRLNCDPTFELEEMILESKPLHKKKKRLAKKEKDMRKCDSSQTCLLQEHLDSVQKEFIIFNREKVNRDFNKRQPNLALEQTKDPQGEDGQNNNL

[29] = target: RIOK2 (human) (UniProt Q9BVS4); details: compound 10.0 µM
[30] = target: HIPK1 (human) (UniProt Q86Z02); details: compound 10.0 µM
[31] = target: DCLK1 (human) (UniProt O15075)
Sequence of DCLK1 (human) (O15075 whole entry, looked up): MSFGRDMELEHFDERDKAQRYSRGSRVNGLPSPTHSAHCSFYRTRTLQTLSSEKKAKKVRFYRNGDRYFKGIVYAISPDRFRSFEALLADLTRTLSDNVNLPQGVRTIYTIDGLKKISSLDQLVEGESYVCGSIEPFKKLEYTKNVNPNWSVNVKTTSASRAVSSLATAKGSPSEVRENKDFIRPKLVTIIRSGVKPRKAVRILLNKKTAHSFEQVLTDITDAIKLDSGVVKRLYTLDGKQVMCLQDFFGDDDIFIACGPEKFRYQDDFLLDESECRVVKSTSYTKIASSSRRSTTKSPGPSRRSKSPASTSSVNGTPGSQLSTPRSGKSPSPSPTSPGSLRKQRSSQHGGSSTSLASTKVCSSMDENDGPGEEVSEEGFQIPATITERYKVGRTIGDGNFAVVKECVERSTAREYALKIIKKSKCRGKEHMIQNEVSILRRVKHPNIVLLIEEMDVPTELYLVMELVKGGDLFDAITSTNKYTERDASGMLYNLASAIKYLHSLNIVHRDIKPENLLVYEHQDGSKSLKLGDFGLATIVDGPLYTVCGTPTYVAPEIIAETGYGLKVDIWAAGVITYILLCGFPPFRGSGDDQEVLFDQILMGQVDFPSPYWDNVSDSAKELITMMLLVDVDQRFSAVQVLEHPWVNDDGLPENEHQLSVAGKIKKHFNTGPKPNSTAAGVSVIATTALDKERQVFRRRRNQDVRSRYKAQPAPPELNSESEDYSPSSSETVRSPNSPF

[32] = target: BMPR1A (human) (UniProt P36894); details: compound 10.0 µM
[33] = target: PRKACB (human) (UniProt P22694); details: compound 10.0 µM
[34] = target: INSR (human) (UniProt P06213); details: compound 10.0 µM
[35] = target: EIF2AK2 (human) (UniProt P19525); details: compound 10.0 µM
[36] = target: AURKA (human) (UniProt O14965)
Sequence of AURKA (human) (O14965 whole entry, looked up): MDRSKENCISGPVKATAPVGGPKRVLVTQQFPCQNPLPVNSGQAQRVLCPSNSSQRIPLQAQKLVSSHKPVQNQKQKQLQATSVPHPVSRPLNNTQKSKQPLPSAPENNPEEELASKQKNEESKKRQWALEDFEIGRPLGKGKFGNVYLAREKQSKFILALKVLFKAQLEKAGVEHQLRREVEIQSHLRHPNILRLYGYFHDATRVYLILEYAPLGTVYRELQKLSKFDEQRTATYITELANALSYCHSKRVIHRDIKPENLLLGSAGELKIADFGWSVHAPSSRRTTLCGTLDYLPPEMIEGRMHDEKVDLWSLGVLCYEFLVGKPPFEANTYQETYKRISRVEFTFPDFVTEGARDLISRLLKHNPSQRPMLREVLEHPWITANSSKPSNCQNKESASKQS

[37] = target: AAK1 (human) (UniProt Q2M2I8); details: compound 10.0 µM
[38] = test system: PIK3CA (human), P42336 [Q546K]; details: compound 10.0 µM
[39] = target: CDK4 CCND1 (human) (UniProt P11802+P24385); details: compound 10.0 µM
[40] = target: MATK (human) (UniProt P42679); details: compound 10.0 µM

Sequence of RPS6KA2 KD2 (human) (Q15349 whole entry, looked up): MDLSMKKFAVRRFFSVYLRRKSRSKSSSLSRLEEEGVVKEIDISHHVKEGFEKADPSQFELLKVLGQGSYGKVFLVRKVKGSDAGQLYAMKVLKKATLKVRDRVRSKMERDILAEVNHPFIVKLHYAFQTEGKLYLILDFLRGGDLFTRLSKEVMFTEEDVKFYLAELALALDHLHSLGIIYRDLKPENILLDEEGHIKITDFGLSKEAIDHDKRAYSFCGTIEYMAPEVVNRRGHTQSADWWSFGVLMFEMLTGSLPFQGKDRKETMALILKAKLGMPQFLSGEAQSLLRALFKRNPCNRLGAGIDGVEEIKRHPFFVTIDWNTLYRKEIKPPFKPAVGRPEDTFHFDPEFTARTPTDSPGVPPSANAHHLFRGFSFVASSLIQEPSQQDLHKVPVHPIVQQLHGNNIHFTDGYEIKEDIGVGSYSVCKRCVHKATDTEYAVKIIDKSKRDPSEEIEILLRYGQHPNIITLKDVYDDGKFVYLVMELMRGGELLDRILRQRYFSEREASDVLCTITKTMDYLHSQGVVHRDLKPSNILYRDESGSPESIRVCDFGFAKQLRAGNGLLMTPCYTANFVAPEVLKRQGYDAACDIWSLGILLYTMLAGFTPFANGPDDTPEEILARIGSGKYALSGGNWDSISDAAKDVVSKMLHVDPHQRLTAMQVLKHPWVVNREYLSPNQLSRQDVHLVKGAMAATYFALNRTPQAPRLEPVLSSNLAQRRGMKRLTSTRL

SMILES: COc1cc(C(=O)N2CCC(N3CCN(C)CC3)CC2)ccc1Nc1ncc2c(n1)N(C)c1ccccc1C(=O)N2C
- pKd [1]: 6.00
- kinase still bound, per cent of control ([1]; compound 10.0 µM): 7.5%
- kinase still bound, per cent of control [2]: 28%
- kinase still bound, per cent of control [3]: 54%
- kinase still bound, per cent of control [4]: 95%
- kinase still bound, per cent of control [5]: 100%
- kinase still bound, per cent of control [6]: 100%
- residual activity [7]: 100%
- kinase still bound, per cent of control [8]: 60%
- kinase still bound, per cent of control [9]: 72%
- kinase still bound, per cent of control [10]: 100%
- kinase still bound, per cent of control [11]: 96%
- kinase still bound, per cent of control [12]: 88%
- residual activity [13]: 8.7%
- pKd [14]: 7.80
- kinase still bound, per cent of control ([14]; compound 10.0 µM): 0%
- residual activity [15]: 100%
- kinase still bound, per cent of control [16]: 47%
- kinase still bound, per cent of control [17]: 100%
- kinase still bound, per cent of control [18]: 87%
- kinase still bound, per cent of control [19]: 100%
- kinase still bound, per cent of control [20]: 100%
- kinase still bound, per cent of control [21]: 66%
- kinase still bound, per cent of control [22]: 51%
- kinase still bound, per cent of control [23]: 77%
- kinase still bound, per cent of control [24]: 100%
- kinase still bound, per cent of control [25]: 94%
- kinase still bound, per cent of control [26]: 100%
- kinase still bound, per cent of control [27]: 62%
- kinase still bound, per cent of control [28]: 100%
- kinase still bound, per cent of control [29]: 100%
- kinase still bound, per cent of control [30]: 100%
- pKd [31]: 8.30
- kinase still bound, per cent of control ([31]; compound 10.0 µM): 4.2%
- kinase still bound, per cent of control [32]: 100%
- residual activity [33]: 100%
- kinase still bound, per cent of control [34]: 84%
- kinase still bound, per cent of control [35]: 84%
- pKd [36]: 5.80
- kinase still bound, per cent of control ([36]; compound 10.0 µM): 1.2%
- kinase still bound, per cent of control [37]: 84%
- kinase still bound, per cent of control [38]: 91%
- residual activity [39]: 100%
- kinase still bound, per cent of control [40]: 100%
